Reference: EP0633262A1, “Novel isatineoxime derivatives, their preparation and use” (NEUROSEARCH A/S, priority 1993, dated 1995)

Target: AMPA ((RS)-α-amino-3-hydroxy-5-methyl-4-isoxazolepropionic acid) binding site
Assay: AMPA binding assay (T. Honoré et al., Neuroscience Letters 54, 27-32 (1985))
Settings: AMPA binding assay as described by T. Honoré et al.; read-out: IC₅₀
Description: In the same assay 8-Methyl-5,7,8,9-tetrahydro-1H-pyrrolo[3,2-h]isoquinoline-2,3-dione-3-oxime has an IC₅₀ of 0.2 µM.

Structure (SMILES) | IC50 [nM]
CN1CC=C2C(=C3NC(=O)C(=NO)C3=CC2S(=O)(=O)N(C)C)C1 (centres unmarked) [Example 6, 5-dimethylsulfamoyl-8-Methyl-5,7,8,9-tetrahydro-1H-pyrrolo[3,2-h]isoquinoline-2,3-dione-3-oxime] | 400
CN1CC=C2CC=C3C(=NO)C(=O)NC3=C2C1 [Example 7, 8-Methyl-5,7,8,9-tetrahydro-1H-pyrrolo[3,2-h]isoquinoline-2,3-dione-3-oxime] | 200
